Measurements taken from patent US12504431B2, “Biomarkers for a therapy comprising a sorafenib compound” (Eisai R&D Management Co., Ltd., priority 2018, dated 2025).
Where a name gives a salt, the structure may show the parent alone.

Legend:
[1] = tested on: Human FGF21-transfected HCC PLC/PRF/5 cells (FGF21-TF); assay: Antitumor activity in FGF21-TF tumor xenograft model in mice; type: in vivo, female nude mice; settings: LEN 10 mg/kg and 30 mg/kg, SOR 30 mg/kg, orally once daily; FIG. 1
Excerpt: (§1) Methods: Human FGF21 and Mock-transfected HCC PLC/PRF/5 cells (FGF21-TF and Mock-TF, respectively) were established by using piggy-back system. To evaluate antitumor activity against these tumors, 4.2×10^6 cells of FGF21-TF or 4.3×10^6 cells of Mock-TF were subcutaneously injected into female nude mice (Charles River, Japan) with matrigel (BD Biosciences). When tumor volumes reached approximately 200-300 mm3, mice were divided into each group according to their tumor volumes and either lenvatinib mesylate (abbreviated as LEN) (10 mg/kg and 30 mg/kg) or Sorafenib tosylate (abbreviated as SOR) (30 mg/kg) was orally administered once daily. Follow-up analysis of a HCC patient-derived xenograft (PDX)-derived tumor (LI0334 HCC PDX tumor model treated with 3 mM HCl (vehicle for lenvatinib)) assessed FGF21 expression levels by immunohistochemistry. Three μm thick sections of paraffin-embedded tumor samples were de-paraffinized and hydrated. Antigen retrieval was performed by incubation of the samples in Dako REAL Target Retrieval sol. (pH6.0) (Dako) for 30 minutes. Endogenous hydrogen peroxidase activity was blocked by incubating the slides for 10 min with 3% hydrogen peroxide. The slides were incubated overnight with primary antibody, human rabbit anti-human FGF21 (ab64857. Abcam) at 1:100 in 1% BSA/PBS at 4° C. […]

[2] = Relative body weight changes in mice with FGF21-TF and Mock-TF tumors; type: in vivo, female nude mice; settings: LEN 10 mg/kg and 30 mg/kg, SOR 30 mg/kg, orally once daily; FIG. 2
Excerpt: as §1

[3] = tested on: Mock-transfected HCC PLC/PRF/5 cells (Mock-TF); assay: Antitumor activity in Mock-TF tumor xenograft model in mice; type: in vivo, female nude mice; settings: LEN 10 mg/kg and 30 mg/kg, SOR 30 mg/kg, orally once daily; FIG. 1
Excerpt: as §1

[4] = tested on: LI0334 HCC PDX tumor; settings: PDX tumor highly expressing FGF21; reported in Matsuki et al., AACR 2017; cited from earlier work
[5] = tested on: unresectable HCC; assay: Phase 3 study E7080-G000-304: OS and PFS by baseline serum FGF21 level; type: in vivo, human; settings: for MST for PFS, high FGF21 group / MST for PFS, low FGF21 group / HR for PFS, high vs low FGF21 group: PFS by RECIST 1.1 (IIR); for MST for PFS, high FGF21 group / median OS (MST), high FGF21 group: baseline serum FGF21 at or above third quartile cutoff (688 ng/L); for MST for PFS, low FGF21 group / median OS (MST), low FGF21 group: baseline serum FGF21 below third quartile cutoff (688 ng/L); for HR for PFS, high vs low FGF21 group / HR for OS, high vs low FGF21 group: univariate Cox regression, third quartile cutoff (688 ng/L); for difference of PFS (RECIST 1.1) between high and low baseline FGF21 groups: third quantile cutoff point
Description: E7080-G000-304 was a multicenter, randomized, open-label, noninferiority Phase 3 study to compare the efficacy and safety of lenvatinib versus sorafenib as a first-line systemic treatment in subjects with unresectable HCC. Subjects were randomly assigned in a 1:1 ratio to treatment with either lenvatinib 12 mg (baseline body weight [BW]≥60 kg) or 8 mg (baseline BW<60 kg) given once daily (QD) orally or sorafenib 400 mg given twice daily (BID) orally. Subjects were stratified by region, presence or absence of macroscopic portal vein invasion (MPVI) or extrahepatic spread (EHS) or both, Eastern Cooperative Oncology Group Performance Status (ECOG PS) 0 or 1, and BW (<60 kg or ≥60 kg). A total of 951 subjects (476 lenvatinib; 475 sorafenib) were enrolled and treated. Lenvatinib and sorafenib were self-administered by the subjects orally, at the same time each day (consistently either with or without food) in continuous 28-day cycles. Subjects received study treatment until disease progression, development of unacceptable toxicity, subject request, or withdrawal of consent.
Of the 954 subjects enrolled in the clinical study and assigned to receive lenvatinib or sorafenib, 407 subjects (42.7% of all ITT subjects, lenvatinib arm, n=279 and sorafenib arm, n=128) were included in blood serum biomarker assay.
Serum samples were collected at Day 1 of Cycle1 (pre-treatment). The serum levels of FGF21 at Day 1 of Cycle 1 (baseline level) in Samples from 279 subjects in the lenvatinib arm and 128 subjects in the sorafenib arm (total 407 subjects) were determined by enzyme-linked immunosorbent assay (ELISA). All biomarker data were transferred to study data tabulation model (SDTM) in accordance with the data transfer specification developed separately. Correlation between the serum baseline level of FGF21 and clinical outcome, such as progression free survival (PFS) was assessed. PFS was defined as the time from the date of randomization to the date of first documentation of disease progression or death.
All statistical analyses were performed by the Clinical Data Science department at Eisai Co., Ltd. (Tokyo, Japan) after the clinical study was completed and a snapshot of the database was obtained on 13 Nov. 2016. For the correlation analyses with PFS, data sets based on independent imaging review (IIR) by RECIST 1.1 were used. Statistical analyses were performed using SAS version 9.3.
For each baseline level of blood serum biomarker, correlation analysis with survival outcome measures (OS and PFS) was performed using univariate Cox regression for the lenvatinib arm and the sorafenib arm separately.
Subjects were divided into two high-low groups based on the baseline level of each blood serum biomarker. The cutoff point was third quartile. Association between the groups and survival outcome measures (OS and PFS) was explored using univariate Cox regression and the Log-rank test with the selected cutoff points.

SMILES	antitumor activity (tumor volume changes) in the FGF21-TF model [1]	body weight losses associated with tumor presence compared to non-treatment [2]	antitumor activity (tumor volume changes) in the Mock-TF model [3]	inhibition of the LI0334 HCC PDX tumor model [4]	MST for PFS, high FGF21 group [5]	MST for PFS, low FGF21 group [5]	HR for PFS, high vs low FGF21 group [5]	median OS (MST), high FGF21 group [5] [months]	median OS (MST), low FGF21 group [5] [months]	difference of PFS (RECIST 1.1) between high and low baseline FGF21 groups [5]	HR for OS, high vs low FGF21 group [5]
COc1cc2nccc(Oc3ccc(NC(=O)NC4CC4)c(Cl)c3)c2cc1C(N)=O [LEN, lenvatinib mesylate]	showed activity	Neither treatment exacerbated body weight losses	showed antitumor activity	inhibited by LEN							
COc1cc2nccc(Oc3ccc(NC(=O)NC4CC4)c(Cl)c3)c2cc1C(N)=O [Lenvatinib, 4-(3-chloro-4-(cyclopropylaminocarbonyl)aminophenoxy)-7-methoxy-6-quinolinecarboxamide]					7.5	8.0	1.184	10.9	18.0	no clear difference of PFS	1.745
CNC(=O)c1cc(Oc2ccc(NC(=O)Nc3ccc(Cl)c(C(F)(F)F)c3)cc2)ccn1 [SOR, Sorafenib tosylate]	only LEN showed activity	Neither treatment exacerbated body weight losses	showed antitumor activity								
CNC(=O)c1cc(Oc2ccc(NC(=O)Nc3ccc(Cl)c(C(F)(F)F)c3)cc2)ccn1 [Sorafenib, 4-[4-[[4-chloro-3-(trifluoromethyl)phenyl]carbamoylamino]phenoxy]-N-methylpyridine-2-carboxamide]					2.4	5.5	1.783	6.8	17.8	short median PFS (RECIST 1.1) for high group than that of low group	3.341
